Values after ≈ are worked out from the molar mass of the structure shown. Like-named read-outs stand apart in the source and are kept apart here.
Columns and labels:
Histoplasma capsulatum = assay: organism not typed; type: cell-based
C. krusei = assay: MIC against Candida species (Table 4); conditions: Pichia kudriavzevii; for MIC: read-out: MIC 100%

Structure (SMILES): NCC(=O)Nc1ccc(-n2nc(C(F)(F)F)cc2-c2ccc3c(ccc4ccccc43)c2)cc1 [AR-12, 2-amino-N-(4-(5-(phenanthren-2-yl)-3-(trifluoromethyl)-1H-pyrazol-1-yl)phenyl)acetamide]
- MIC (Histoplasma capsulatum; read-out: MIC, concentration resulting in 50% inhibition of yeast growth): 5.4 µM (≈ 2.49 µg/mL)
- MIC (Histoplasma capsulatum; read-out: MIC, concentration resulting in 90% inhibition of yeast growth): 15.9 µM (≈ 7.32 µg/mL)
- concentration that effectively prevents growth (Histoplasma capsulatum; stated for all three fungi): 8 to 40 µM
- MIC50 (C. krusei; 24 h): 2 µg/mL (≈ 4.34 µM)
- MIC (C. krusei; 24 h): 4 µg/mL (≈ 8.69 µM)
- MIC50 (C. krusei; 48 h): 4 µg/mL (≈ 8.69 µM)
- MIC (C. krusei; 48 h): 4 µg/mL (≈ 8.69 µM)

Source: US20160199351A1, “COMPOSITIONS AND METHODS FOR INHIBITING FUNGAL INFECTIONS” (priority 2015, published 2016)
